Test results published in ChEMBL document CHEMBL6087390, “Pyridine and Pyrimidine hybrids as privileged scaffolds in antimalarial drug discovery: A recent development” (Bioorg Med Chem Lett, 2024).
In brackets after ≈: the same amount, converted by molar mass. Blank lines part the entries; values can stand above or below the compound they belong to.

Columns and labels:
[1] = Cytotoxicity against african green monkey Vero cells assessed as cell viability measured after 48 hrs by MTT assay; format: toxicity, cell-based, Chlorocebus sabaeus
Plasmodium falciparum [2] = experiment: Antimalarial activity against Plasmodium falciparum NF54; format: functional, organism-based
Plasmodium falciparum [3] = experiment: Antimalarial activity against Plasmodium falciparum Dd2 assessed as reduction in parasite growth; format: functional, organism-based
Plasmodium falciparum [4] = experiment: Antiparasitic activity against Plasmodium falciparum 3D7 assessed as reduction in parasite growth; format: functional, organism-based
Plasmodium falciparum [5] = experiment: Antiplasmodial activity against multidrug resistant Plasmodium falciparum K1 assessed as reduction in parasite growth by [3H]-hypoxanthine incorporation assay; format: functional, organism-based
HepG2 [6] = experiment: Cytotoxicity against human HepG2 cells assessed as reduction in cell viability measured for 48 hrs by MTT assay; format: functional
Plasmodium falciparum [7] = experiment: microbe, parasite or virus in culture; conditions: W2
Plasmodium falciparum [8] = experiment: microbe, parasite or virus in culture; conditions: W2; remark: listed apart in the source
Plasmodium falciparum [9] = experiment: Antimalarial activity against Plasmodium falciparum 3D7 assessed as inhibition of parasite growth measured after 72 hrs by SYBR Green I staining based analysis; format: functional, organism-based; conditions: 3D7, 72 h
HepG2 [10] = experiment: Cytotoxicity against human HepG2 cells assessed as reduction in cell growth; format: functional
[11] = Cytotoxicity against human HFF cells assessed as inhibition of cell viability measured after 48 hrs by MTT assay; format: toxicity, cell-based
Plasmodium falciparum [12] = experiment: Antiplasmodial activity against Plasmodium falciparum W2 assessed as reduction in parasite growth after 72 hrs by SYBR Green fluorescence assay; format: functional, organism-based; conditions: W2, 72 h
Plasmodium falciparum [13] = experiment: Antimalarial activity against Plasmodium falciparum K1 assessed as parasite growth inhibition; format: functional, organism-based
Plasmodium falciparum [14] = experiment: Antimalarial activity against […] Plasmodium falciparum NF54 assessed as inhibition of parasite growth incubated for 48 hrs by SYBR green dye based flow cytometry; format: functional, organism-based; conditions: NF54, 48 h
Plasmodium falciparum [15] = experiment: Antiplasmodial activity against Plasmodium falciparum Dd2 assessed as reduction in parasite growth measured after 72 hrs by SYBR Green 1 staining based assay; format: functional, organism-based; conditions: Dd2, 72 h
Plasmodium falciparum [16] = experiment: Antiplasmodial activity against Plasmodium falciparum NF54 assessed as reduction in parasite growth; format: functional, organism-based
Plasmodium falciparum [17] = experiment: Antimalarial activity against Plasmodium falciparum K1 assessed as reduction in parasite growth incubated for 48 hrs by SYBR Green I staining based analysis; format: functional, organism-based; conditions: K1, 48 h
[18] = Cytotoxicity against African green monkey Vero cells assessed as reduction in cell growth measured after 72 hrs by MTT assay; format: toxicity, cell-based; conditions: African green monkey (Chlorocebus sabaeus)
HepG2 [19] = experiment: Cytotoxicity against human HepG2 cells assessed as reduction in cell viability measured for 48 hrs by SRB assay; format: functional
Plasmodium falciparum [20] = experiment: Antimalarial activity against Plasmodium falciparum 3D7 assessed as inhibition of parasite growth incubated for 72 hrs by SYBR Green I staining based analysis; format: functional, organism-based; conditions: 3D7, 72 h
Plasmodium falciparum [21] = experiment: Antimalarial activity against Plasmodium falciparum D6 assessed as reduction in parasite growth; format: functional, organism-based
HepG2 [22] = experiment: Cytotoxicity against human HepG2 cells assessed as reduction in cell viability incubated for 72 hrs by MTT assay; format: functional
Plasmodium falciparum [23] = experiment: microbe, parasite or virus in culture; conditions: 3D7, 72 h
Plasmodium falciparum [24] = experiment: microbe, parasite or virus in culture; conditions: 3D7, 48 h
Plasmodium falciparum [25] = experiment: Antiparasitic activity against Plasmodium falciparum; format: functional, organism-based
Plasmodium falciparum [26] = experiment: Antiplasmodial activity against CQ-sensitive Plasmodium falciparum NF54; format: functional, organism-based

IC50 (Plasmodium falciparum [2]): 180 nM
Compound: Cc1nc(OCc2cn(CCNc3ccnc4cc(Cl)ccc34)nn2)nc(-c2ccccc2[N+](=O)[O-])c1C(=O)OC(C)C
IC50 at 48 h ([1]; African green monkey (Chlorocebus sabaeus)): 150000 nM
IC50 (Plasmodium falciparum [3]): 990 nM

Compound: Cc1ccccc1N(C)C(=O)C(c1cncnc1)N(Cc1cccc(C(F)(F)F)c1)C1CC1 (centres undefined)
EC50 (Plasmodium falciparum [4]): 400 nM
EC50 (Plasmodium falciparum [5]): 790 nM
CC50 (HepG2 [6]): > 30000 nM

Compound: CCN(CC)Cc1cc(Nc2ccnc3cc(Cl)ccc23)ccc1O [AMODIAQUINE]
IC50 (Plasmodium falciparum [7]): 60 nM
IC50 (Plasmodium falciparum [8]): 70 nM

Compound: Cc1ccccc1-n1nnnc1C(c1cccnc1)N(C)Cc1cc(C(F)(F)F)ccc1F (centres undefined)
EC50 (Plasmodium falciparum [9]): 1000 nM

Compound: CC(C)=CCC1=C(OCc2cn(C3CC(CO)OC3n3cc(C)c(=O)[nH]c3=O)nn2)C(=O)c2ccccc2C1=O (centres undefined)
CC50 (HepG2 [10]): 60700 nM

Compound: Cc1ncc(Cn2cc(CCOC(=O)c3ccccc3)nn2)c(N)n1
IC50 at 48 h [11]: > 200000 nM

IC50 (Plasmodium falciparum [2]): 40 nM
Compound: Cc1nc(OCc2cn(CCCNc3ccnc4cc(Cl)ccc34)nn2)nc(-c2ccc([N+](=O)[O-])cc2)c1C(=O)OC(C)C
IC50 (Plasmodium falciparum [3]): 4500 nM

Compound: COc1ccc(NC(=O)C(c2ccc(C(F)(F)F)cc2)N2CCN(c3ncnc4sc5c(c34)CCCC5)CC2)cc1 (centres undefined)
IC50 (Plasmodium falciparum [12]): 50 nM

Compound: CC[C@H]1CN2CCc3cc(OC)c(OC)cc3[C@@H]2C[C@@H]1C[C@H]1NCCc2cc(OC)c(OC)cc21 [EMETINE]
IC50 (Plasmodium falciparum [13]): 650 nM
IC50 (Plasmodium falciparum [14]): 250 nM

Compound: COc1ccc(C(F)(F)F)cc1CN(C)C(c1cccnc1)c1nnnn1-c1ccccc1C (centres undefined)
EC50 (Plasmodium falciparum [15]): 1700 nM
EC50 (Plasmodium falciparum [9]): 1200 nM

Compound: Cc1ncc(Cn2cc(CCOC(=O)c3cccc(Cl)c3)nn2)c(N)n1
IC50 at 48 h [11]: > 200000 nM

Compound: COc1ccc(NC(=O)C(c2ccc(OC(F)(F)F)cc2)N2CCN(c3ncnc4sc5c(c34)CCCC5)CC2)cc1 (centres undefined)
IC50 (Plasmodium falciparum [12]): 60 nM

Compound: Clc1ccc2c(NCCn3cc(-c4ccnc(-c5ccccn5)c4)nn3)ccnc2c1
IC50 (Plasmodium falciparum [13]): 270 nM
IC50 (Plasmodium falciparum [14]): 90 nM

Compound: Cc1ccccc1-n1nnnc1C(c1cccnc1)N(Cc1cc(C(F)(F)F)ccc1F)C1CC1 (centres undefined)
EC50 (Plasmodium falciparum [9]): 600 nM

Compound: CN(Cc1cccc(C(F)(F)F)c1F)C(c1cccnc1)c1nnnn1C1CCCCC1 (centres undefined)
EC50 (Plasmodium falciparum [15]): 2600 nM
EC50 (Plasmodium falciparum [9]): 1700 nM

Compound: COc1ccc(-c2cc(-c3ccc(OC)cc3)nc(N3CCN(c4ccnc5cc(Cl)ccc45)CC3)n2)cc1
IC50 (Plasmodium falciparum [16]): 7690 nM

Compound: Oc1ccc(-c2cc(-c3ccc(O)c(O)c3)nc(NCCCCNc3ccnc4cc(Cl)ccc34)n2)cc1
IC50 (Plasmodium falciparum [16]): 1620 nM

Compound: COC(=O)C1=C(Cn2cc(COc3cc(C(F)(F)F)nc4c(C(F)(F)F)cccc34)nn2)NC(=O)NC1c1ccc(OC)cc1 (centres undefined)
IC50 (Plasmodium falciparum [17]): > 5000 nM

Compound: COc1ccc(-c2cc(-c3ccc(OC)c(OC)c3)nc(N3CCN(c4ccnc5cc(Cl)ccc45)CC3)n2)cc1OC
IC50 (Plasmodium falciparum [16]): 6170 nM

Compound: FC(F)(F)c1cc(Nc2ncccn2)c2cccc(C(F)(F)F)c2n1
IC50 at 72 h [18]: > 559000 nM

Compound: CC(=O)N(Cc1cccc(C(F)(F)F)c1)C(c1cncnc1)c1nnnn1-c1ccccc1C (centres undefined)
CC50 (HepG2 [19]): > 30000 nM
EC50 (Plasmodium falciparum [15]): > 30000 nM
EC50 (Plasmodium falciparum [20]): 15000 nM

Compound: Clc1ccc2c(NCCn3cc(-c4ccccn4)nn3)ccnc2c1
IC50 (Plasmodium falciparum [13]): 950 nM
IC50 (Plasmodium falciparum [14]): 620 nM

IC50 (Plasmodium falciparum [7]): 90 nM
Compound: CCN1CCN(c2nc(C)cc(N(CCNc3ccnc4cc(Cl)ccc34)Cc3ccccn3)n2)CC1
IC50 (Plasmodium falciparum [21]): 20 nM

Compound: CC1(C)c2nc(-c3ccc(F)cc3)c(Br)n2CCN1C(=O)Cn1cc(-c2ccccn2)nn1
IC50 (Plasmodium falciparum [13]): 88300 nM
IC50 (Plasmodium falciparum [14]): 73100 nM

Compound: OC(c1cc(C(F)(F)F)nc2c(C(F)(F)F)cccc12)C1CCCCN1 (centres undefined) [MEFLOQUINE]
IC50 at 72 h [18]: 15000 nM
IC50 (Plasmodium falciparum [7]): 10 nM

Compound: COc1ccc(NC(=O)C(c2ccc(Cl)c(Cl)c2)N2CCN(c3ncnc4sc5c(c34)CCCC5)CC2)cc1 (centres undefined)
IC50 (Plasmodium falciparum [12]): 60 nM

Compound: CCCN(C(c1cccnc1)c1nnnn1-c1ccccc1C)C1(c2cccc(C(F)(F)F)c2)CC1 (centres undefined)
CC50 (HepG2 [22]): 10000 nM

Compound: Cc1ncc(C(C(=O)N(C)c2ccccc2C)N(Cc2cccc(C(F)(F)F)c2)C2CC2)cn1 (centres undefined)
EC50 (Plasmodium falciparum [4]): 8100 nM
EC50 (Plasmodium falciparum [5]): 9800 nM
CC50 (HepG2 [6]): > 30000 nM

IC50 (Plasmodium falciparum [23]): 1000 nM
Compound: COc1ccc(NC(=O)C(c2ccc(F)c(Cl)c2)N2CCN(c3ncnc4sc5c(c34)CCCC5)CC2)cc1 (centres undefined)
IC50 (Plasmodium falciparum [12]): 120 nM

Compound: Cc1cc(N(CCNc2ccnc3cc(Cl)ccc23)Cc2ccccn2)nc(N2CCN(C)CC2)n1
IC50 (Plasmodium falciparum [21]): 20 nM

Compound: COc1ccc(NC(=O)C(c2ccc(C)cc2)N2CCN(c3ncnc4sc5c(c34)CCCC5)CC2)cc1 (centres undefined)
IC50 (Plasmodium falciparum [12]): 260 nM

Compound: C=C[C@H]1CN2CC[C@H]1C[C@H]2[C@H](O)c1ccnc2ccc(OC)cc12 [QUININE]
IC50 (Plasmodium falciparum [24]): 0.26 µg/mL (≈ 0.801 µM)
IC50 (Plasmodium falciparum [8]): 830 nM
IC50 (Plasmodium falciparum [25]): 2710 nM

IC50 (Plasmodium falciparum [7]): 10 nM
Compound: Cc1cc(N2CCN(C)CC2)nc(N(CCCNc2ccnc3cc(Cl)ccc23)Cc2cccs2)n1
IC50 (Plasmodium falciparum [21]): 30 nM

Compound: COc1ccc(C(F)(F)F)cc1CN(C1CC1)C(c1cccnc1)c1nnnn1-c1ccccc1C (centres undefined)
CC50 (HepG2 [22]): 16000 nM

IC50 (Plasmodium falciparum [7]): 10 nM
Compound: CCN1CCN(c2cc(C)nc(N(CCCNc3ccnc4cc(Cl)ccc34)Cc3cccs3)n2)CC1
IC50 (Plasmodium falciparum [21]): 32 nM

Compound: Cc1ncc(C(c2nnnn2C2CC2)N(C2CC2)C2(c3cccc(C(F)(F)F)c3)CC2)cn1 (centres undefined)
CC50 (HepG2 [19]): > 30000 nM
EC50 (Plasmodium falciparum [15]): 21000 nM
EC50 (Plasmodium falciparum [20]): > 30000 nM

Compound: Oc1ccc(-c2cc(-c3ccc(O)cc3)nc(NCCCCNc3ccnc4cc(Cl)ccc34)n2)cc1
IC50 (Plasmodium falciparum [16]): 320 nM

Compound: CC1(C)c2nc(-c3ccc(F)cc3)c(Br)n2CCN1C(=O)Cn1cc(-c2ccnc(-c3ccccn3)c2)nn1
IC50 (Plasmodium falciparum [13]): 3900 nM
IC50 (Plasmodium falciparum [14]): 6800 nM

IC50 (Plasmodium falciparum [26]): 5500 nM
Compound: CC1(C)[C@@H](O)CC[C@]2(C)[C@H]3C(=O)CC4[C@@H]5C[C@@](C)(C(=O)OCc6cn(-c7ccc(C#N)nc7)nn6)CC[C@]5(C)CC[C@@]4(C)[C@]3(C)CC[C@@H]12 (some centres undefined)
CC50 (HepG2 [10]): 290000 nM

Compound: Cc1ccccc1-n1nnnc1C(c1cncnc1)N(Cc1cccc(C(F)(F)F)c1)C1CC1 (centres undefined)
CC50 (HepG2 [19]): 37000 nM
EC50 (Plasmodium falciparum [20]): 400 nM

Compound: Cc1ccccc1-n1nnnc1C(c1cccnc1)N(Cc1cccc(C(F)(F)F)c1)C1CC1 (centres undefined)
CC50 (HepG2 [22]): 15000 nM

Compound: CCN(CC)CCCC(C)Nc1ccnc2cc(Cl)ccc12 (centres undefined) [CHLOROQUINE]
IC50 at 72 h [18]: 907000 nM
CC50 (HepG2 [10]): 45400 nM
CC50 at 48 h ([1]; chlorocebus sabaeus, time 48 hrs): 393000 nM

Compound: COC(=O)C1=C(Cn2cc(COc3cc(C(F)(F)F)nc4c(C(F)(F)F)cccc34)nn2)NC(=O)NC1c1ccc(F)cc1 (centres undefined)
IC50 (Plasmodium falciparum [17]): > 10000 nM

Compound: COC(=O)C1=C(Cn2cc(CCOc3cc(C(F)(F)F)nc4c(C(F)(F)F)cccc34)nn2)NC(=O)NC1c1ccc(F)cc1 (centres undefined)
IC50 (Plasmodium falciparum [17]): > 5000 nM
